Read-outs that look alike come from different tables or passages of the source.
Legend:
[1] = system: gastric cancer cell line H-111-TC; assay: Cell growth inhibitory activity, H-111-TC; format: cell-based; conditions: Table 6
Protocol: (§1) The cell growth inhibitory activity against a colorectal cancer cell line HCT116 was measured. As an index of cell growth inhibitory activity, a concentration at which cell growth was inhibited by 50% as compared with a control (IC50) was used. The method is as follows. HCT116 was added to a 6-well plate by 5×10^4, compounds having various concentrations were added after 24 hours, and the number of cells was counted after 72 hours of culture. As the control, DMSO was used in an amount equal to the amount added in accordance with the addition concentration of the highest-concentration compound. The number of cells at each concentration relative to the control was expressed as a percentage. In Table 3, the turbidities of the compounds are also indicated.
The cell growth inhibitory activity (IC50) of each of curcumin, GO-Y199, and GO-Y206 against the colorectal cancer cell lines DLD-1 and HCT116 and the gastric cancer cell lines KATO III and H-111-TC was measured. The method is as described above. FIG. 8 indicates the results of cell growth inhibitory activity of these compounds against various cancer cell lines.

[2] = system: cutaneous T-cell lymphoma cell line HH; assay: Cell growth inhibitory activity, HH; format: cell-based; conditions: Table 10
Protocol: [The source words this procedure for another cell line and reports this cell line under the same test.] as §1, with “percentage.” for “percentage. In Table 3, the turbidities of the compounds are also indicated.”
(§2) The method is as described above.

[3] = system: malignant pleural mesothelioma cell line MSTO211H; assay: Cell growth inhibitory activity, MSTO211H; format: cell-based; conditions: Table 8
Protocol: as §1
(§3) GO-Y198, GO-Y199, and GO-Y200 against malignant pleural mesothelioma cell lines NCI-H226 and MSTO211H was measured. The method is as described above. For comparison, the IC50 of cisplatin (CDDP), a cytocidal anticancer agent, is also indicated.

[4] = system: malignant melanoma cell line G361; assay: Cell growth inhibitory activity, G361; format: cell-based; conditions: Table 9
Protocol: [The source words this procedure for another cell line and reports this cell line under the same test.] as §1, with “percentage.” for “percentage. In Table 3, the turbidities of the compounds are also indicated.”
as §2

[5] = system: cutaneous T-cell lymphoma cell line HUT78; assay: Cell growth inhibitory activity, HUT78; format: cell-based; conditions: Table 10
Protocol: [The source words this procedure for another cell line and reports this cell line under the same test.] as §1, with “percentage.” for “percentage. In Table 3, the turbidities of the compounds are also indicated.”
as §2

[6] = system: pancreatic cancer cell line Panc-1; assay: Cell growth inhibitory activity, Panc-1; format: cell-based; conditions: Table 7
Protocol: [The source words this procedure for another cell line and reports this cell line under the same test.] as §1, with “percentage.” for “percentage. In Table 3, the turbidities of the compounds are also indicated.”
as §2

[7] = system: colorectal cancer cell line DLD-1; assay: Cell growth inhibitory activity, DLD-1; format: cell-based
Protocol: as §1, with “percentage.” for “percentage. In Table 3, the turbidities of the compounds are also indicated.”
as §2
(§4) The cell growth inhibitory activity (IC50) of each of curcumin, GO-Y199, and GO-Y206 against the colorectal cancer cell lines DLD-1 and HCT116 and the gastric cancer cell lines KATO III and H-111-TC was measured. The method is as described above.

[8] = Turbidity measurement; format: physicochemical; conditions: for Turbidity (Relative Value): Table 3, relative to curcumin = 1
Protocol: The turbidity of various compounds was measured. The method is as follows. […] Curcumin was cloudy while GO-Y199 was clear. The solubility was measured with a turbidimeter (WZB-170 Portable Turbidimeter available from REX). The turbidity of the compound was corrected for concentration.
Subsequently, GO-Y206 and curcumin were adjusted to final concentrations of 1.25 μM and 5.00 μM, respectively, and their turbidities were measured.

[9] = system: vascular endothelial cells HUVEC-R resistant to Ki8751; assay: Angiogenesis inhibitory activity, HUVEC-R; format: cell-based; conditions: Table 11, number of cells after 72 hours
Protocol: HUVEC-R was cultured in the presence of each compound using an EGMTM-2 Bullet Kit (Takara Bio Inc., Otsu, Japan), and the number of cells was measured after 72 hours. In addition, IC50 was determined from the results.

[10] = system: gastric cancer cell line GCIY; assay: Cell growth inhibitory activity, GCIY; format: cell-based; conditions: Homo sapiens, GCIY; Table 4; 72 hours
Protocol: [The source words this procedure for another cell line and reports this cell line under the same test.] as §1, with “percentage.” for “percentage. In Table 3, the turbidities of the compounds are also indicated.”
as §2

[11] = system: gastric cancer cell line SH-10-TC; assay: Cell growth inhibitory activity, SH-10-TC; format: cell-based; conditions: SH-10-TC; Table 4; 72 hours
Protocol: [The source words this procedure for another cell line and reports this cell line under the same test.] as §1, with “percentage.” for “percentage. In Table 3, the turbidities of the compounds are also indicated.”
as §2

[12] = system: pancreatic cancer cell line ASPC-1; assay: Cell growth inhibitory activity, ASPC-1; format: cell-based; conditions: Table 7
Protocol: [The source words this procedure for another cell line and reports this cell line under the same test.] as §1, with “percentage.” for “percentage. In Table 3, the turbidities of the compounds are also indicated.”
as §2

[13] = system: gastric cancer cell line KATO III; assay: Cell growth inhibitory activity, KATO III; format: cell-based; conditions: Table 6, read-out: IC50 (μM) KATO III
Protocol: as §1, with “percentage.” for “percentage. In Table 3, the turbidities of the compounds are also indicated.”
as §2, §4

[14] = system: malignant pleural mesothelioma cell line NCI-H226; assay: Cell growth inhibitory activity, NCI-H226; format: cell-based; conditions: Table 8
Protocol: as §1, §3

[15] = system: colorectal cancer cell line HCT116; assay: Cell growth inhibitory activity, HCT116; format: cell-based
Protocol: as §1, with “percentage.” for “percentage. In Table 3, the turbidities of the compounds are also indicated.”
as §2, §4

[16] = Table 1, average turbidity corrected for final concentration (1.7-170 μm, per compound)
[17] = Table 1, turbidity/μm relative to curcumin = 1
[18] = Table 2, value in parentheses, relative to curcumin = 1.00
[19] = Table 3, HCT116, cell count after 72 hours of culture vs DMSO control, read-out: IC50

COc1cc(/C=C/C(=O)CC(=O)/C=C/c2ccc(O)c(OC)c2)ccc1O [curcumin, reference compound]
IC50 [1]: > 50 µM | IC50 ([2]; T-cell): 18.1 µM | IC50 ([3]; Homo sapiens, MSTO-211H): 33.7 µM | IC50 ([4]; Homo sapiens, G-361): 16.8 µM | IC50 ([5]; Homo sapiens, HuT78): 9.01 µM | IC50 ([6]; Homo sapiens, PANC-1): 29.2 µM | IC50 ([7]; Homo sapiens, DLD-1, Table 4, 72 hours, read-out: IC50 DLD-1): 18.7 µM | IC50 ([7]; Homo sapiens, DLD-1, Table 6, read-out: IC50 (μM) DLD-1): 44.8 µM | Turbidity/μm [8, 16]: 0.29 NTU/μM | Relative Value (turbidity) [8, 17]: 1 | Turbidity (NTU) ([8]; Table 2, final conc. 1.25 μM): 4.96 NTU | Turbidity/μm ([8]; Table 2, final conc. 1.25 μM): 3.968 NTU/μM | Turbidity (NTU) ([8]; Table 2, final conc. 5.0 μM): 29.0 NTU | Turbidity/μm ([8]; Table 2, final conc. 5.0 μM): 5.8 NTU/μM | Relative Value (turbidity) [8, 18]: (1.00) | Turbidity (Relative Value) [8]: 1 | appearance of solution ([8]; final concentration 50 μM in distilled water or DMEM with 10% fetal bovine serum, from DMSO): cloudy | IC50 ([9]; Endothelial cell): 11.9 µM | IC50 [10]: 8.66 µM | IC50 [11]: 8.07 µM | IC50 ([12]; Homo sapiens, ASPC1): 18.5 µM | IC50 ([13]; Homo sapiens, KATO III): 11 µM | IC50 ([14]; Homo sapiens, NCI-H226): 15.1 µM | IC50 ([15]; Homo sapiens, HCT-116, read-out: IC50 HCT-116, Table 4, 72 hours): 16 µM | IC50 ([15]; Homo sapiens, HCT-116, Table 3, HCT116, cell count after 72 hours of culture vs DMSO control, read-out: IC50): 16 µM | IC50 ([15]; Homo sapiens, HCT-116, Table 6, read-out: IC50 (μM) HCT116): 7.08 µM

COCOc1cc(/C=C/C(=O)CC(SCCOCCOCCOCCOCc2cn([C@H]3O[C@@H](CO)[C@H](O)[C@@H](O)[C@@H]3O)nn2)c2cc(OCOC)cc(OCOC)c2)cc(OCOC)c1 (stereo partly shown) [GO-Y197]
IC50 [2]: 1.11 µM | IC50 [3]: 3.9 µM | IC50 [4]: 1.1 µM | IC50 [5]: 0.81 µM | Turbidity/μm [8, 16]: 0 NTU/μM | Relative Value (turbidity) [8, 17]: 0 | Turbidity (Relative Value) [8]: 0 | Ave Turbidity (NTU) ([8]; final conc. 8.3 μm in DDW): 0 NTU | IC50 [9]: 0.96 µM | IC50 [14]: 4 µM | IC50 [15, 19]: 0.7 µM

COCOc1cc(C=CC(=O)CC(SCCOCCOCCOCCOCc2cn(CCCOC(=O)CCCCC3SCC4NC(=O)NC43)nn2)c2cc(OCOC)cc(OCOC)c2)cc(OCOC)c1 (mixture of isomers) [GO-Y195]
IC50 [15, 19]: 1.8 µM

COCOc1cc(/C=C/C(=O)CC(SCC(=O)OC)c2cc(OCOC)cc(OCOC)c2)cc(OCOC)c1 (racemic) [GO-Y136, reference compound]
Turbidity/μm [8, 16]: 0.024 NTU/μM | Relative Value (turbidity) [8, 17]: 0.083 | Turbidity (Relative Value) [8]: 0.083 | Ave Turbidity (NTU) ([8]; final conc. 1.7 μm in DDW): 0.04 ± 0.0082 NTU | IC50 [15, 19]: 0.89 µM

COCOc1cc(C=CC(=O)CC(SCCOCCOCCOCCOCc2cn(C3CC(O)C(O)C(CO)O3)nn2)c2cc(OCOC)cc(OCOC)c2)cc(OCOC)c1 (mixture of isomers) [GO-Y206]
IC50 [1]: 4.67 µM | IC50 ([7]; Table 6, read-out: IC50 (μM) DLD-1): 1.21 µM | Turbidity/μm ([8]; Table 2, final conc. 1.25 μM): 0.144 NTU/μM | Turbidity (NTU) ([8]; Table 2, final conc. 5.0 μM): 1.82 NTU | Turbidity/μm ([8]; Table 2, final conc. 5.0 μM): 0.364 NTU/μM | Relative Value (turbidity) [8, 18]: (0.052) | turbidity as percent of curcumin ([8]; from averaged NTU/μM): 5% | IC50 [13]: 3.11 µM | IC50 ([15]; Table 6, read-out: IC50 (μM) HCT116): 0.91 µM

COc1cc(/C=C/C(=O)/C=C/c2ccc(O)c(OC)c2)ccc1O [GO-Y022, reference compound]
IC50 [2]: 9.16 µM | IC50 [4]: 3.1 µM | IC50 [5]: 4.03 µM | IC50 [6]: 6.67 µM | Turbidity/μm [8, 16]: 0.014 NTU/μM | Relative Value (turbidity) [8, 17]: 0.048 | Turbidity (Relative Value) [8]: 0.048 | Ave Turbidity (NTU) ([8]; final conc. 8.3 μm in DDW): 0.12 ± 0.0094 NTU | IC50 [9]: 4.7 µM | IC50 [12]: 8.52 µM | IC50 [15, 19]: 2.02 µM

COCOc1cc(C=CC(=O)CC(SCCOCCOCCOCCOCc2cn(C3OC(CO)C(O)C(O)C3O)nn2)c2cc(OCOC)cc(OCOC)c2)cc(OCOC)c1 (mixture of isomers) [GO-Y196]
Turbidity/μm [8, 16]: 0 NTU/μM | Relative Value (turbidity) [8, 17]: 0 | Turbidity (Relative Value) [8]: 0 | Ave Turbidity (NTU) ([8]; final conc. 8.3 μm in DDW): 0 NTU | IC50 [15, 19]: 0.67 µM

COCOc1cc(/C=C/C(=O)CC(SCCOCCOCCOCCOCc2cn([C@H]3O[C@H](CO)[C@@H](O)[C@H](O)[C@@H]3O)nn2)c2cc(OCOC)cc(OCOC)c2)cc(OCOC)c1 (stereo partly shown) [GO-Y198]
IC50 [2]: 1.15 µM | IC50 [3]: 0.9 µM | IC50 [5]: 0.51 µM | Turbidity/μm [8, 16]: 0 NTU/μM | Relative Value (turbidity) [8, 17]: 0 | Turbidity (Relative Value) [8]: 0 | Ave Turbidity (NTU) ([8]; final conc. 8.3 μm in DDW): 0 NTU | IC50 [9]: 1.08 µM | IC50 [14]: 4.2 µM | IC50 [15, 19]: 0.44 µM

COCOc1cc(/C=C/C(=O)CC(SCCOCCOCCOCCOCc2cn(CCCO)nn2)c2cc(OCOC)cc(OCOC)c2)cc(OCOC)c1 (racemic) [GO-Y194]
IC50 [15, 19]: 0.5 µM

COCOc1cc(/C=C/C(=O)/C=C/c2cc(OCOC)cc(OCOC)c2)cc(OCOC)c1 [GO-Y030, (1E,4E)-1,5-bis-[3,5-bis(methoxymethoxy)phenyl]pentadiene-3-one, reference compound]
Turbidity/μm [8, 16]: 2.68 NTU/μM | Ave Turbidity (NTU) ([8]; final conc. 17 μm in DDW): 45.6 ± 0.21 NTU | Turbidity (NTU) ([8]; individual measurements, final conc. 170 μm, DMSO stock diluted in 30 mL DDW): over limit

COCOc1cc(/C=C/C(=O)CC(SCCOCCOCCOCCOCc2cn([C@@H]3O[C@H](CO)[C@@H](O[C@H]4O[C@H](CO)[C@@H](O)[C@H](O)[C@H]4O)[C@H](O)[C@H]3O)nn2)c2cc(OCOC)cc(OCOC)c2)cc(OCOC)c1 (stereo partly shown) [GO-Y200]
IC50 [2]: 1.31 µM | IC50 [3]: 4.5 µM | IC50 [5]: 0.91 µM | IC50 [6]: 0.91 µM | Turbidity/μm [8, 16]: 0 NTU/μM | Relative Value (turbidity) [8, 17]: 0 | Turbidity (Relative Value) [8]: 0 | Ave Turbidity (NTU) ([8]; final conc. 8.3 μm in DDW): 0 NTU | IC50 [9]: 1.3 µM | IC50 [12]: 1.33 µM | IC50 [14]: 4.7 µM | IC50 [15, 19]: 0.42 µM
